Results on six molecules are retold here after patent publication US7345020B2, “Mimetics of CD4 that inhibit immune response” (Thomas Jefferson University, priority 1995, dated 2008).

“Also recorded” adds a separate entry of the source. Positions of bridges follow the written chain, without caps; N, C: chain ends. Residues, ends and D or L forms follow the SMILES beside them.

The test system of assay [1] is experimental allergic encephalomyelitis (EAE). The experiment in a line: EAE inhibition in vivo (SJL EAE model). On the set-up: species or system mouse. To be noted: for maximum mean EAE severity grade: SJL mice, 0.5 mg i.v. on day 12, 0-5 scale, untreated control maximum 2.0. Here is the method: The C—C′ loop peptides were initially tested for efficacy in the SJL EAE model. In untreated animals, a high incidence of disease was observed 15-22 days after two s.c. inoculations of 1 mg of crude murine spinal cord homogenate in complete Freund's adjuvant. The severity of the disease was scored daily using the established 0-5 scale that describes the level of ascending paresis, Korngold, R., et al., 1986, Immunogenetics 24:309-315. The level of the mean EAE severity grade of mice for the untreated control group reached a maximum of 2.0. […] Also shown are the results of groups of mice that received the rD-mPGPtide, a mimic of residues 86-104 of murine homolog of CD4, which was described in Jameson et al. 1994, Nature 368:744-746.

For assay [2], the system named is human peripheral blood lymphocytes (responder cell alloreactive proliferation). As to conditions: for activity of cyclic CNSNQIC compared with this linear peptide in human MLR: linear peptides derived from the same C—C′ region.
Protocol: For this assay, fresh peripheral blood lymphocytes from two different donors are co-cultured; the cells of one donor were irradiated and served as stimulators. Proliferation of these activated T cells was measured by measuring the incorporation of ^3H-thymidine at various timepoints.
For human MLR, 50 ml of whole blood was collected into anti-coagulant (ACD, acid citrate dextrose) containing tubes. In 50 ml conical tubes, 20 ml of blood was layered over 20 ml Ficoll 1077 (Sigma Chemical Co., St. Louis, Mo.) and centrifuged at 2000 rpm for 35-40 min at 15-20° C. Buffy coats and serum were collected in 3× volume of PBS centrifuged at 1500 rpm for 15 min at 15-20° C. Supernatants were discarded, cells were washed 2× in 50 ml PBS and resuspended in RPMI supplemented with 10% heat-inactivated (56°, 30 min) human serum (cat# H4522, Sigma), 50 IU/ml pen/strep and 2 mM (1% of 200 mM stock) L-glutamine (both from BioWhitaker).
In a 96-well flat bottom plate 1×10^5 responders were plated with 2×10^5 irradiated (3000 rad) simulators/well (added in 100 μl each), and incubated for 6, 7 or 8 days at 37° C., 7% CO2. Peptide analogues were added to quadruplicate wells, at a concentration of 100 μM (5 mg/ml stock) or titrations thereof, immediately after cells were plated. For radiolabelling, the cells were incubated with 1 μCi [^3H] TdR/well (25 μl) (diluted from 1 mCi/ml stock, Amersham) for the final 6 hours of incubation. Cells were harvested using a fiberfilter cell harvester (e.g., Harvester 96, Tomtec) and counted in a Beta Counter of Beta plate reader (1205 BS Betaplate Liquid Scintillation Counter, Wallac) with scintillation fluid.
In assay [3] the test system is murine spleen responder cells with irradiated C3H stimulator cells. The experiment in a line: Murine mixed lymphocyte reaction. It is filed as cell-based, mouse. As to conditions: in vitro. Here is the method: Mice were sacrificed and spleens aseptically removed. Cell suspensions were made by gently pressing spleens through nylon mesh, washing cells with RPMI 1640 and hypotonic lysis of red blood cells. After 3 washes in RPMI 1640, cells were resuspended in complete medium (RPMI 1640, 10% heat inactivated FCS, 2 mM L-glutamine, penicillin/streptomycin) and 5×10^5 responder cells incubated with 1×10^5 stimulator cells (C3H spleen cells, 2000 rad irradiated) in triplicate in round bottom 96 well plates (final volume 200 μl), and incubated with the indicated concentration of peptide (0.01, 0.1, 1, 10, 100 and 1000 μM peptide) for 5 days at 37° C., 5% CO2. 1 μCi/WELL OF [^3H] TdR was added 12 hours before thymidine incorporation was measured. Labelled DNA from cells was harvested onto glass fiber filters with a PHD cell harvester (Cambridge, Mass.), and CPM determined by liquid scintillation counting with the use of a 1209 Rackbeta (LKB, Piscataway, N.J.).

Take “CNSNQIC (linear, no disulfide) [linear CNSNQIC]”: the “maximum mean EAE severity grade” value in assay [1] is reported as 1.0. `CC[C@H](C)[C@@H]1NC(=O)[C@H](CCC(N)=O)NC(=O)[C@H](CC(N)=O)NC(=O)[C@H](CO)NC(=O)[C@H](CC(N)=O)NC(=O)[C@@H](N)CSSC[C@@H](C(=O)O)NC1=O` [cyclic CNSNQIC, CNSNQIC] (H-CNSNQIC-OH; disulfide 1-7; N-terminus and C-terminus assumed): in assay [1], the “maximum mean EAE severity grade” value came to 1.0 and the “effect on EAE in mice, in words” value is “effective to ameliorate EAE; also recorded: inhibitor of EAE in mice”. Besides, the “inhibition of human T cell activation (suppressive effect)” value in assay [2] (3 h) came to 54.4%. On to YCNSNQIC, for which the “inhibitory activity in murine MLR, in words” value in assay [3] is reported as “inhibitory activity comparable to the cyclic peptide CNSNQIC”. Besides, in assay [1], the “effect on EAE in mice, in words” value was “inhibitory activity comparable to the cyclic peptide CNSNQIC”. In addition, the “inhibitory activity in human MLR / human T cell proliferation, in words” value in assay [2] (in vitro) is on record as “inhibitory activity comparable to the cyclic peptide CNSNQIC”. Take NSNQI: in assay [2], the “activity of cyclic CNSNQIC compared with this linear peptide in human MLR” value is “significantly higher activity”. Regarding KNSNQ, the “activity of cyclic CNSNQIC compared with this linear peptide in human MLR” value in assay [2] was “significantly higher activity”. The same measure, in the same setting: for KNSNQI the value was “significantly higher activity”.
